Tests used:
[1] = Efflux ratio of apparent permeability basolateral to apical side over apical to basolateral side in human Caco-2 cells measured for 360 mins by liquid scintillation counting based analysis; assay type: ADME, cell-based
[2] = biological target: T1, Interleukin-1 receptor-associated kinase 4 (Homo sapiens, UniProt Q9NWZ3); assay: Inhibition of IRAK4 (unknown origin) phosphorylation by cell based assay
T1 sequence (Q9NWZ3 whole entry): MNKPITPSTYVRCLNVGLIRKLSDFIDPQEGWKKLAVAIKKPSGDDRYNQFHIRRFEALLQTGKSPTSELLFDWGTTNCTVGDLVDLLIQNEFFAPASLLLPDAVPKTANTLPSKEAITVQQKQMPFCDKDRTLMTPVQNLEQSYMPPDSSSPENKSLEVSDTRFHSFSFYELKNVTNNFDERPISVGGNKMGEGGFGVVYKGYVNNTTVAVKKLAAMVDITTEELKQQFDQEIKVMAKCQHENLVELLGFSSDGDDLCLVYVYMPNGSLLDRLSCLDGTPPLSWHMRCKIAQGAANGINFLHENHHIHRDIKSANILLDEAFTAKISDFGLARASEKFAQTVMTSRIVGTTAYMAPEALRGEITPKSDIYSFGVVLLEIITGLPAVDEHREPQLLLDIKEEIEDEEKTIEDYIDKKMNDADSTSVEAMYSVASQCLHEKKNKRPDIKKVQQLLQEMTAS

[3] = Apparent permeability across apical to basolateral side in human Caco-2 cells measured for 360 mins by liquid scintillation counting based analysis; assay type: ADME, cell-based
[4] = Metabolic stability in human liver microsomes assessed as intrinsic clearance; assay type: ADME, Microsome; details: read-out: CLH
[5] = Metabolic stability in human hepatocytes assessed as intrinsic clearance measured per 10^6 cells; assay type: ADME, cell-based, Hepatocyte; details: read-out: CLH
[6] = biological target: T1, Interleukin-1 receptor-associated kinase 4; assay: Inhibition of IRAK4 (unknown origin) in presence of ATP by enzymatic assay
[7] = Lipophilicity, LogD at pH 7.4 of the compound by shake flask method; assay type: physicochemical; details: buffer
[8] = Clearance in human; assay type: ADME
[9] = Clearance in human assessed as liver blood flow; assay type: ADME, tissue-based
[10] = Metabolic stability in human cytosol assessed as intrinsic clearance; assay type: ADME, subcellular
[11] = biological target: T2, Receptor-type tyrosine-protein kinase FLT3 (Homo sapiens, UniProt P36888); assay: Inhibition of FLT3 (unknown origin) in presence of 600 uM ATP
T2 sequence (P36888 whole entry): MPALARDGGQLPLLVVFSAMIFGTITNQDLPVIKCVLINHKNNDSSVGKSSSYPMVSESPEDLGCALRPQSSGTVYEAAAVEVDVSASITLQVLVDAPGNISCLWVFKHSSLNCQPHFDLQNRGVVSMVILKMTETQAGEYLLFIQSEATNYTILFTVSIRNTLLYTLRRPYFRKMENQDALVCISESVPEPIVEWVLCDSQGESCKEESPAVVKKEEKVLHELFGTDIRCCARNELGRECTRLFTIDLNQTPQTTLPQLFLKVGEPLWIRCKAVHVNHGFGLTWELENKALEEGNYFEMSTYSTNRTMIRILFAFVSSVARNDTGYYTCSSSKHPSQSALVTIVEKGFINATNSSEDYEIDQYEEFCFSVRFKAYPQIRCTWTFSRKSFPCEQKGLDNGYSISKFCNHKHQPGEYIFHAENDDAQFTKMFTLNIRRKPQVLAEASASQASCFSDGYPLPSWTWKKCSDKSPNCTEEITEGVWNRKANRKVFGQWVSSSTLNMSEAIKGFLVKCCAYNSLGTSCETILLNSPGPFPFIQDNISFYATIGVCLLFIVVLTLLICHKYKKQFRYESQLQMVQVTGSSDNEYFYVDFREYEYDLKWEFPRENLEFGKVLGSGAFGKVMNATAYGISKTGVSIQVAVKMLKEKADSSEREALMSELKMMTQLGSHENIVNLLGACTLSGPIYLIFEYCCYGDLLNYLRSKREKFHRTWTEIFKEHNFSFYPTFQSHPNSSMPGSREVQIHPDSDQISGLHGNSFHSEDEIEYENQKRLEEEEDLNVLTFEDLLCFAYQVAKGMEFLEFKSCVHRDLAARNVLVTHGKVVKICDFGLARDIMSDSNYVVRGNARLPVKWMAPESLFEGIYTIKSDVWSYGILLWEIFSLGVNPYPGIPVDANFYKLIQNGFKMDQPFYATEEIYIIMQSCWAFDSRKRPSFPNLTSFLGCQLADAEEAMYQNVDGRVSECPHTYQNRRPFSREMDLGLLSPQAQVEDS

Homo sapiens = species: Homo sapiens; assay: Selectivity index, ratio of IC50 for inhibition of FLT3 (unknown origin) to IC50 for inhibition of IRAK4 (unknown origin)
[12] = biological target: High affinity nerve growth factor receptor (Homo sapiens, UniProt P04629); assay: Inhibition of TRKA (unknown origin) in presence of 400 uM ATP
Sequence of High affinity nerve growth factor receptor (P04629 whole entry): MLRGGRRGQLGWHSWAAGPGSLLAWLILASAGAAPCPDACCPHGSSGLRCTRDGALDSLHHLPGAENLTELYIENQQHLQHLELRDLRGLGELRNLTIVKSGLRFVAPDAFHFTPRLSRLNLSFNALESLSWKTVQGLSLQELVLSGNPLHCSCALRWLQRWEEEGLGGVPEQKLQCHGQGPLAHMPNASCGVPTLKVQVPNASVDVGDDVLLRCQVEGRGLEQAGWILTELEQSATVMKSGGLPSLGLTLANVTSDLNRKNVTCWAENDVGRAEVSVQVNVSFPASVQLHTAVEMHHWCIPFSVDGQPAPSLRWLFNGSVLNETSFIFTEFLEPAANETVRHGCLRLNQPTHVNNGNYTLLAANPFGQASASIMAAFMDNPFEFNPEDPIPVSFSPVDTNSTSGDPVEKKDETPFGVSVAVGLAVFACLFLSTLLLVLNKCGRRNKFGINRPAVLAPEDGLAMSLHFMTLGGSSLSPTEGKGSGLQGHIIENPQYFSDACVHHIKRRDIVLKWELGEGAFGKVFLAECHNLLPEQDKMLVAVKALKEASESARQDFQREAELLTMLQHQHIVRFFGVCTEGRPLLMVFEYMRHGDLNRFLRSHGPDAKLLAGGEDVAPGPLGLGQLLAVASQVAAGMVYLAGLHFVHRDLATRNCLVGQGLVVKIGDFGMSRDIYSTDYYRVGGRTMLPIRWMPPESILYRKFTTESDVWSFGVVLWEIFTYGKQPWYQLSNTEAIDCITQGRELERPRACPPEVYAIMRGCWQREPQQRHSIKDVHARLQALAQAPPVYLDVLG

SMILES	efflux ratio at 6 h [1]	IC50 [2]	Papp A→B at 6 h [3]	microsomal CLint [4]	hepatocyte CLint [5]	IC50 [6]	logD [7]	clearance [8]	LBF [9]	microsomal CLint [10]	IC50 [11]	Ratio IC50 (Homo sapiens)	IC50 [12]
Cn1cc(Nc2nc(N[C@H]3CCOC3)c3nc(CC#N)ccc3n2)cn1	–	2600 nM	–	–	–	113 nM	1.6	–	–	–	–	–	–
Cc1nc2c(OC3(C)CC3)nc(Nc3cnn(C4CC5(C4)CN(C)C5)c3)nc2cc1F	–	200 nM	–	< 3 µL/min/mg	4 µL/min/1e6 cells	3 nM	2.2	–	–	–	–	–	–
Cn1cc(Nc2nc(NC3CCOCC3)c3nc(CC#N)ccc3n2)cn1	–	2100 nM	–	–	–	139 nM	1.7	–	–	–	–	–	–
Cc1ncc(-c2nc3c(OC4(C)CC4)nc(Nc4cnn(C5CC6(C5)CN(C)C6)c4)nc3cc2F)cn1	–	220 nM	–	< 3 µL/min/mg	< 1 µL/min/1e6 cells	3 nM	1.4	–	–	–	–	–	–
CN1CC2(CC(n3cc(Nc4nc(OC5(C)CC5)c5nc(C6CC6)c(F)cc5n4)cn3)C2)C1	–	300 nM	–	< 3 µL/min/mg	< 1 µL/min/1e6 cells	3 nM	2.6	–	–	–	–	–	–
Cn1cc(Nc2nc(NC3COC3)c3nc(CC#N)ccc3n2)cn1	–	9400 nM	–	–	–	447 nM	1.2	–	–	–	–	–	–
CC(C)Nc1nc(Nc2cnn(C)c2)nc2ccc(CC#N)nc12	–	570 nM	–	–	–	51 nM	2.4	–	–	–	–	–	–
CN1CCC(n2cc(Nc3nc(OC4(C)CC4)c4nc(-c5ccnnc5)ccc4n3)cn2)CC1	–	130 nM	–	48 µL/min/mg	8.4 µL/min/1e6 cells	1 nM	1.7	–	–	–	–	–	–
Cn1cc(Nc2nc(NC3CC3)c3nc(CC#N)ccc3n2)cn1	–	490 nM	–	–	–	22 nM	2.1	–	–	–	–	–	–
Cc1ncncc1-c1ccc2nc(Nc3cnn(C4CCN(C)CC4)c3)nc(OC3(C)CC3)c2n1	–	170 nM	–	44 µL/min/mg	4.7 µL/min/1e6 cells	5 nM	1.9	–	–	4.8 µL/min/mg	–	–	–
CN1CCC(n2cc(Nc3nc(OC4(C)CC4)c4nc(C5CC5)ccc4n3)cn2)CC1	–	38 nM	–	37 µL/min/mg	4.6 µL/min/1e6 cells	2 nM	2.8	–	–	–	–	–	–
CN1CCC(n2cc(Nc3nc(OC4(C)CC4)c4nc(-c5cn(C)cn5)ccc4n3)cn2)CC1	–	6800 nM	–	14 µL/min/mg	–	730 nM	1.8	–	–	–	–	–	–
Cc1ncc(-c2nc3c(OC4(C)CC4)nc(Nc4cnn([C@@H]5C[C@H]6C[C@@H]5CN6C)c4)nc3cc2F)cn1	–	1100 nM	–	14 µL/min/mg	–	32 nM	1.5	–	–	–	–	–	–
Cn1cc(Nc2nc(N[C@@H]3CCOC3)c3nc(CC#N)ccc3n2)cn1	–	3500 nM	–	–	–	211 nM	1.5	–	–	–	–	–	–
CN1CCC(n2cc(Nc3nc(OC4(C)CC4)c4nc(-c5cccnc5)ccc4n3)cn2)CC1	–	120 nM	–	130 µL/min/mg	–	1 nM	2.6	–	–	–	–	–	–
CN1CCC(n2cc(Nc3nc(OC4(C)CC4)c4nc(-c5ccn(C)n5)ccc4n3)cn2)CC1	–	21000 nM	–	18 µL/min/mg	–	490 nM	2.1	–	–	–	–	–	–
Cn1cc(Nc2nc(NC3(C)CC3)c3nc(CC#N)ccc3n2)cn1	–	110 nM	–	–	71 µL/min/1e6 cells	2 nM	2.7	–	–	–	–	–	–
CC(=O)N1CCC(n2cc(Nc3nc(OC4CCOCC4)c4nc(C)ccc4n3)cn2)CC1	2.6	71 nM	45 ×10⁻⁶ cm/s	33 µL/min/mg	4.6 µL/min/1e6 cells	3 nM	2.3	–	–	–	30 nM	–	20 nM
CN1CCC(n2cc(Nc3nc(OC4(C)CC4)c4nc(-c5cn(C)nn5)ccc4n3)cn2)CC1	–	510 nM	–	13 µL/min/mg	< 1 µL/min/1e6 cells	19 nM	1.8	–	–	–	–	–	–
CC(=O)N1CCC(n2cc(Nc3nc(OC4CCOCC4)c4nc(CC#N)ccc4n3)cn2)CC1	–	2000 nM	–	5 µL/min/mg	–	32 nM	1.2	–	–	–	–	–	–

More lines, in order of falling IC50 [2], values ahead:

efflux ratio at 6 h [1]	IC50 [2]	Papp A→B at 6 h [3]	microsomal CLint [4]	hepatocyte CLint [5]	IC50 [6]	logD [7]	clearance [8]	LBF [9]	microsomal CLint [10]	IC50 [11]	Ratio IC50 (Homo sapiens)	IC50 [12]	SMILES
17	670 nM	1.5 ×10⁻⁶ cm/s	< 4.5 µL/min/mg	1.7 µL/min/1e6 cells	13 nM	1.2	–	–	–	–	–	–	CN1CCC(n2cc(Nc3nc(OC4(C)CC4)c4nc(C(=O)N(C)C)ccc4n3)cn2)CC1
86	670 nM	4.1 ×10⁻⁶ cm/s	26 µL/min/mg	–	12 nM	1.4	–	–	–	–	–	–	CC(=O)N1CCC(n2cc(Nc3nc(NC4CCOCC4)c4nc(CC#N)ccc4n3)cn2)CC1
–	570 nM	–	110 µL/min/mg	–	15 nM	1.9	–	–	–	–	–	–	N#CCc1ccc2nc(Nc3cnn(C4CCOCC4)c3)nc(NC3CCOCC3)c2n1
–	480 nM	–	53 µL/min/mg	5.5 µL/min/1e6 cells	15 nM	2.2	–	–	< 0.5 µL/min/mg	–	–	–	Cc1ncncc1-c1nc2c(OC3(C)CC3)nc(Nc3cnn(C4CCN(C)CC4)c3)nc2cc1F
–	310 nM	–	15 µL/min/mg	< 1 µL/min/1e6 cells	4 nM	1.7	–	–	–	–	–	–	Cc1ncc(-c2nc3c(OC4(C)CC4)nc(Nc4cnn([C@@H]5C[C@@H]6C[C@H]5CN6C)c4)nc3cc2F)cn1
–	260 nM	–	23 µL/min/mg	3.4 µL/min/1e6 cells	7 nM	2.1	–	–	2.2 µL/min/mg	–	–	–	Cc1ncc(-c2ccc3nc(Nc4cnn(C5CCN(C)CC5)c4)nc(OC4(C)CC4)c3n2)c(C)n1
–	210 nM	–	15 µL/min/mg	1.7 µL/min/1e6 cells	3 nM	2.2	–	–	–	170 nM	< 5	–	CN1CCC(n2cc(Nc3nc(OC4(C)CC4)c4nc(-c5cnn(C)c5)ccc4n3)cn2)CC1
24	170 nM	9.3 ×10⁻⁶ cm/s	–	–	3 nM	–	13 mL/min/kg	70%	–	–	–	–	COC(=O)N1CCN([C@H]2CC[C@H](Nc3nc(Nc4cnn(C)c4)nc4ccc(CC#N)nc34)CC2)CC1
–	140 nM	–	52 µL/min/mg	170 µL/min/1e6 cells	1.8 nM	2.2	–	–	69 µL/min/mg	–	–	–	Cc1ncc(-c2ccc3nc(Nc4cnn(C5CCN(C)CC5)c4)nc(OC4(C)CC4)c3n2)cn1
2.5	100 nM	20 ×10⁻⁶ cm/s	18 µL/min/mg	1.9 µL/min/1e6 cells	3 nM	1.8	5 mL/min/kg	20%	< 0.5 µL/min/mg	16 nM	> 30	–	Cc1ccc2nc(Nc3cnn(C4CCN(C)CC4)c3)nc(OC3(C)CC3)c2n1
–	54 nM	–	11 µL/min/mg	< 1 µL/min/1e6 cells	0.6 nM	2.1	–	–	–	–	–	–	Cc1ncc(-c2nc3c(NC4(C)CC4)nc(Nc4cnn(C5CC6(C5)CN(C)C6)c4)nc3cc2F)cn1
–	29 nM	–	88 µL/min/mg	14 µL/min/1e6 cells	1 nM	–	–	–	20 µL/min/mg	–	–	–	CN1CCC(n2cc(Nc3nc(OC4(C)CC4)c4nc(-c5cncnc5)c(F)cc4n3)cn2)CC1
